# Test results published in patent US20250059193A1, “POLYMORPHIC AND SALT FORMS OF (1S,3S)-N1-(5-(PENTAN-3-YL)PYRAZOLO[1,5-A]PYRIMIDIN-7-YL) CYCLOPENTANE-1,3-DIAMINE” (Kronos Bio, Inc., priority 2021, published 2025).
# Counter-ions that a name gives are not always drawn.
# Assay: Repeat XRD of amorphous free base from slow evaporation of ethanol solution
# Format: physicochemical
# Settings: product of slow evaporation of ethanol solution of form I
# Protocol: Initial attempts to generate an amorphous form of the free base were conducted by slow evaporation of a form I solution. In particular, form I was dissolved in ethanol according to the chart below and then allowed to slowly evaporate.
row,Compound,XRD of amorphous product after about 45 minutes
1,CCC(CC)c1cc(N[C@H]2CC[C@H](N)C2)n2nccc2n1 [amorphous product],began crystalizing

# Assay: Accelerated aging conditions (AAC; 40° C./75% RH), solids reanalyzed by XRPD
# Format: physicochemical
# Settings: 3 days, solid form by XRPD
# Protocol: Next, the resulting solids were combined with another solvent (acetonitrile (AcN) or ethanol) and the resulting mixtures were stirred at room temperature (RT). After stirring, the solids were isolated by centrifugation and part of the solids was harvested on a 96-well plate and dried under ambient conditions. The remaining part of the solids was dried under vacuum (5 mbar [i.e. 500 Pa], RT, 18 h). All solids were analyzed by XRPD, subjected to accelerated aging conditions (AAC; 40° C./75% RH) and reanalyzed by XRPD. The procedure and resulting tosylate forms are shown in the table below, wherein forms were identified by XRD.
# Next, the resulting solids were combined with another solvent (acetonitrile (AcN) or chloroform) and the resulting mixtures were stirred at room temperature (RT). After stirring, the solids were isolated by centrifugation and part of the solids was harvested on a 96-well plate and dried under ambient conditions. The remaining part of the solids was dried under vacuum (5 mbar, RT, 18 h). All solids were analyzed by XRPD, subjected to AAC (accelerated aging conditions; 40° C./75% RH) and reanalyzed by XRPD.
# Next, the resulting solids were combined with another solvent (AcN, diethyl ether, or toluene), and the resulting mixtures were stirred at room temperature (RT). After stirring, the solids were isolated by centrifugation and part of the solids was harvested on a 96-well plate and dried under ambient conditions. The remaining part of the solids was dried under vacuum (5 mbar, RT, 18 h). All solids were analyzed by XRPD, subjected to AAC (40° C./75% RH) and reanalyzed by XRPD.
# Next, the resulting solids were combined with another solvent (1,4-dioxane, acetonitrile, ethyl acetate), and the resulting mixtures were stirred at room temperature (RT). After stirring, the solids were isolated by centrifugation and part of the solids was harvested on a 96-well plate and dried under ambient conditions. The remaining part of the solids was dried under vacuum (5 mbar, RT, 18 h). All solids were analyzed by XRPD, subjected to AAC (40° C./75% RH) and reanalyzed by XRPD.
# Next, the resulting solids were combined with another solvent (acetonitrile or diethyl ether), and the resulting mixtures were stirred at room temperature (RT). After stirring, the solids were isolated by centrifugation and part of the solids was harvested on a 96-well plate and dried under ambient conditions. The remaining part of the solids was dried under vacuum (5 mbar, RT, 18 h). All solids were analyzed by XRPD, subjected to AAC (40° C./75% RH) and reanalyzed by XRPD.
row,Compound,3 days AAC (XRPD form)
1,CCC(CC)c1cc(N[C@H]2CC[C@H](N)C2)n2nccc2n1 [Camsylate II],Form II
2,CCC(CC)c1cc(N[C@H]2CC[C@H](N)C2)n2nccc2n1 [Fumarate II],Form III
3,CCC(CC)c1cc(N[C@H]2CC[C@H](N)C2)n2nccc2n1 [Fumarate IV],Form III
4,CCC(CC)c1cc(N[C@H]2CC[C@H](N)C2)n2nccc2n1 [Oxalate II],Form II
5,CCC(CC)c1cc(N[C@H]2CC[C@H](N)C2)n2nccc2n1 [Tosylate amorphous],Form II
6,CCC(CC)c1cc(N[C@H]2CC[C@H](N)C2)n2nccc2n1 [fumarate salt],Form III

# Same assay, conditions: 5 days, solid form by XRPD
row,Compound,5 days AAC (XRPD form)
1,CCC(CC)c1cc(N[C@H]2CC[C@H](N)C2)n2nccc2n1 [Camsylate II],Form III
2,CCC(CC)c1cc(N[C@H]2CC[C@H](N)C2)n2nccc2n1 [Oxalate II],Form II
3,CCC(CC)c1cc(N[C@H]2CC[C@H](N)C2)n2nccc2n1 [Tosylate amorphous],Form II

# Assay: pH of the solubility samples
# Format: physicochemical
# Settings: Medium 50 mM phosphate; pH Buffer 1.6 as printed; 24 h
# Protocol: The pH was recorded with a Metrohm 913 PH meter, equipped with a WTW SenTix® MIC-B electrode.
# (§1) FaSSGF is Fasted State Simulated Gastric Fluid. Solubility is reported in mg/mL.
row,Compound,pH (24 h)
1,"CCC(CC)c1cc(N[C@H]2CC[C@H](N)C2)n2nccc2n1 [Free base I, (1S,3S)—N^1—(5-(pentan-3-yl)pyrazolo[1,5-α]pyrimidin-7-yl)cyclopentane-1,3-diamine]",9.4

# Same assay, conditions: Medium 100 mM phosphate; pH Buffer 6.8; 30 min
row,Compound,pH (30 min)
1,CCC(CC)c1cc(N[C@H]2CC[C@H](N)C2)n2nccc2n1 [Camsylate II],4.1
2,CCC(CC)c1cc(N[C@H]2CC[C@H](N)C2)n2nccc2n1 [Citrate I],4.5
3,CCC(CC)c1cc(N[C@H]2CC[C@H](N)C2)n2nccc2n1 [Fumarate III],4.5
4,CCC(CC)c1cc(N[C@H]2CC[C@H](N)C2)n2nccc2n1 [Oxalate III],2.1
5,CCC(CC)c1cc(N[C@H]2CC[C@H](N)C2)n2nccc2n1 [Tosylate III],2.7

# Same assay, conditions: Medium 100 mM phosphate; pH Buffer 6.8; 2 h
row,Compound,pH (2 h)
1,CCC(CC)c1cc(N[C@H]2CC[C@H](N)C2)n2nccc2n1 [Camsylate II],7.4
2,CCC(CC)c1cc(N[C@H]2CC[C@H](N)C2)n2nccc2n1 [Citrate I],6.7
3,CCC(CC)c1cc(N[C@H]2CC[C@H](N)C2)n2nccc2n1 [Fumarate III],7.2
4,CCC(CC)c1cc(N[C@H]2CC[C@H](N)C2)n2nccc2n1 [Oxalate III],6.7
5,CCC(CC)c1cc(N[C@H]2CC[C@H](N)C2)n2nccc2n1 [Tosylate III],6.8

# Same assay, conditions: Medium 100 mM phosphate; pH Buffer 6.8; 24 h
row,Compound,pH (24 h)
1,CCC(CC)c1cc(N[C@H]2CC[C@H](N)C2)n2nccc2n1 [Camsylate II],7.5
2,CCC(CC)c1cc(N[C@H]2CC[C@H](N)C2)n2nccc2n1 [Citrate I],6.7
3,CCC(CC)c1cc(N[C@H]2CC[C@H](N)C2)n2nccc2n1 [Fumarate III],7.3
4,CCC(CC)c1cc(N[C@H]2CC[C@H](N)C2)n2nccc2n1 [Oxalate III],6.8
5,CCC(CC)c1cc(N[C@H]2CC[C@H](N)C2)n2nccc2n1 [Tosylate III],7.0

# Same assay, conditions: Medium FaSSGF; pH Buffer 1.6; 30 min
row,Compound,pH (30 min)
1,CCC(CC)c1cc(N[C@H]2CC[C@H](N)C2)n2nccc2n1 [Camsylate II],1.6
2,CCC(CC)c1cc(N[C@H]2CC[C@H](N)C2)n2nccc2n1 [Citrate I],4.4
3,CCC(CC)c1cc(N[C@H]2CC[C@H](N)C2)n2nccc2n1 [Fumarate III],4.1
4,CCC(CC)c1cc(N[C@H]2CC[C@H](N)C2)n2nccc2n1 [Oxalate III],1.6
5,CCC(CC)c1cc(N[C@H]2CC[C@H](N)C2)n2nccc2n1 [Tosylate III],1.0

# Same assay, conditions: Medium FaSSGF; pH Buffer 1.6; 2 h
row,Compound,pH (2 h)
1,CCC(CC)c1cc(N[C@H]2CC[C@H](N)C2)n2nccc2n1 [Camsylate II],1.7
2,CCC(CC)c1cc(N[C@H]2CC[C@H](N)C2)n2nccc2n1 [Citrate I],1.6
3,CCC(CC)c1cc(N[C@H]2CC[C@H](N)C2)n2nccc2n1 [Fumarate III],1.6
4,CCC(CC)c1cc(N[C@H]2CC[C@H](N)C2)n2nccc2n1 [Oxalate III],1.6
5,CCC(CC)c1cc(N[C@H]2CC[C@H](N)C2)n2nccc2n1 [Tosylate III],1.9

# Same assay, conditions: Medium FaSSGF; pH Buffer 1.6; 24 h
row,Compound,pH (24 h)
1,CCC(CC)c1cc(N[C@H]2CC[C@H](N)C2)n2nccc2n1 [Camsylate II],1.7
2,CCC(CC)c1cc(N[C@H]2CC[C@H](N)C2)n2nccc2n1 [Citrate I],1.6
3,CCC(CC)c1cc(N[C@H]2CC[C@H](N)C2)n2nccc2n1 [Fumarate III],1.7
4,CCC(CC)c1cc(N[C@H]2CC[C@H](N)C2)n2nccc2n1 [Oxalate III],1.5
5,CCC(CC)c1cc(N[C@H]2CC[C@H](N)C2)n2nccc2n1 [Tosylate III],2.1

# Same assay, conditions: Medium FaSSGF; pH Buffer 7.4 as printed; 24 h
row,Compound,pH (24 h)
1,"CCC(CC)c1cc(N[C@H]2CC[C@H](N)C2)n2nccc2n1 [Free base I, (1S,3S)—N^1—(5-(pentan-3-yl)pyrazolo[1,5-α]pyrimidin-7-yl)cyclopentane-1,3-diamine]",10.2

# Same assay, conditions: Medium Water; 24 h
row,Compound,pH (24 h)
1,"CCC(CC)c1cc(N[C@H]2CC[C@H](N)C2)n2nccc2n1 [Free base I, (1S,3S)—N^1—(5-(pentan-3-yl)pyrazolo[1,5-α]pyrimidin-7-yl)cyclopentane-1,3-diamine]",10.1

# Assay: Solubility of free base and salt forms
# Format: physicochemical
# Settings: 50 mM phosphate buffer, pH 1.6, aqueous buffer, thermodynamic from solid, Medium 50 mM phosphate; pH Buffer 1.6 as printed; 24 h
# Text: as §1
row,Compound,solubility at 24 h
1,"CCC(CC)c1cc(N[C@H]2CC[C@H](N)C2)n2nccc2n1 [Free base I, (1S,3S)—N^1—(5-(pentan-3-yl)pyrazolo[1,5-α]pyrimidin-7-yl)cyclopentane-1,3-diamine]",9.8 mg/mL

# Same assay, conditions: FaSSGF (Fasted State Simulated Gastric Fluid), pH 7.4, fassgf or other biorelevant, thermodynamic from solid, Medium FaSSGF; pH Buffer 7.4 as printed; 24 h
row,Compound,solubility at 24 h
1,"CCC(CC)c1cc(N[C@H]2CC[C@H](N)C2)n2nccc2n1 [Free base I, (1S,3S)—N^1—(5-(pentan-3-yl)pyrazolo[1,5-α]pyrimidin-7-yl)cyclopentane-1,3-diamine]",5.9 mg/mL

# Same assay, conditions: Medium 100 mM phosphate; pH Buffer 6.8; 2 h
row,Compound,Solubility (2 h)
1,CCC(CC)c1cc(N[C@H]2CC[C@H](N)C2)n2nccc2n1 [Camsylate II],28.9 mg/mL
2,CCC(CC)c1cc(N[C@H]2CC[C@H](N)C2)n2nccc2n1 [Citrate I],>137 mg/mL
3,CCC(CC)c1cc(N[C@H]2CC[C@H](N)C2)n2nccc2n1 [Fumarate III],>107 mg/mL
4,CCC(CC)c1cc(N[C@H]2CC[C@H](N)C2)n2nccc2n1 [Oxalate III],55.5 mg/mL
5,CCC(CC)c1cc(N[C@H]2CC[C@H](N)C2)n2nccc2n1 [Tosylate III],8.7 mg/mL

# Same assay, conditions: Medium 100 mM phosphate; pH Buffer 6.8; 24 h
row,Compound,Solubility (24 h)
1,CCC(CC)c1cc(N[C@H]2CC[C@H](N)C2)n2nccc2n1 [Camsylate II],42.2 mg/mL
2,CCC(CC)c1cc(N[C@H]2CC[C@H](N)C2)n2nccc2n1 [Citrate I],>137 mg/mL
3,CCC(CC)c1cc(N[C@H]2CC[C@H](N)C2)n2nccc2n1 [Fumarate III],>107 mg/mL
4,CCC(CC)c1cc(N[C@H]2CC[C@H](N)C2)n2nccc2n1 [Oxalate III],38.1 mg/mL
5,CCC(CC)c1cc(N[C@H]2CC[C@H](N)C2)n2nccc2n1 [Tosylate III],2.92 mg/mL

# Same assay, conditions: Medium FaSSGF; pH Buffer 1.6; 2 h
row,Compound,Solubility (2 h)
1,CCC(CC)c1cc(N[C@H]2CC[C@H](N)C2)n2nccc2n1 [Camsylate II],>380 mg/mL
2,CCC(CC)c1cc(N[C@H]2CC[C@H](N)C2)n2nccc2n1 [Citrate I],>127 mg/mL
3,CCC(CC)c1cc(N[C@H]2CC[C@H](N)C2)n2nccc2n1 [Fumarate III],>48 mg/mL
4,CCC(CC)c1cc(N[C@H]2CC[C@H](N)C2)n2nccc2n1 [Oxalate III],>392 mg/mL
5,CCC(CC)c1cc(N[C@H]2CC[C@H](N)C2)n2nccc2n1 [Tosylate III],>129 mg/mL

# Same assay, conditions: Medium FaSSGF; pH Buffer 1.6; 24 h
row,Compound,Solubility (24 h)
1,CCC(CC)c1cc(N[C@H]2CC[C@H](N)C2)n2nccc2n1 [Camsylate II],>380 mg/mL
2,CCC(CC)c1cc(N[C@H]2CC[C@H](N)C2)n2nccc2n1 [Citrate I],>127 mg/mL
3,CCC(CC)c1cc(N[C@H]2CC[C@H](N)C2)n2nccc2n1 [Fumarate III],>48 mg/mL
4,CCC(CC)c1cc(N[C@H]2CC[C@H](N)C2)n2nccc2n1 [Oxalate III],>392 mg/mL
5,CCC(CC)c1cc(N[C@H]2CC[C@H](N)C2)n2nccc2n1 [Tosylate III],>129 mg/mL

# Same assay, conditions: physiological conditions; salt forms versus free base
row,Compound,solubility compared with the free base
1,CCC(CC)c1cc(N[C@H]2CC[C@H](N)C2)n2nccc2n1 [Camsylate II],increased
2,CCC(CC)c1cc(N[C@H]2CC[C@H](N)C2)n2nccc2n1 [Citrate I],increased
3,CCC(CC)c1cc(N[C@H]2CC[C@H](N)C2)n2nccc2n1 [Fumarate III],increased
4,CCC(CC)c1cc(N[C@H]2CC[C@H](N)C2)n2nccc2n1 [Oxalate III],increased
5,CCC(CC)c1cc(N[C@H]2CC[C@H](N)C2)n2nccc2n1 [Tosylate III],increased

# Same assay, conditions: water
row,Compound,solubility
1,"CCC(CC)c1cc(N[C@H]2CC[C@H](N)C2)n2nccc2n1 [Free base I, (1S,3S)—N^1—(5-(pentan-3-yl)pyrazolo[1,5-α]pyrimidin-7-yl)cyclopentane-1,3-diamine]",5.9 mg/mL

# Same assay, conditions: water, thermodynamic from solid, Medium Water; 24 h
row,Compound,solubility at 24 h
1,"CCC(CC)c1cc(N[C@H]2CC[C@H](N)C2)n2nccc2n1 [Free base I, (1S,3S)—N^1—(5-(pentan-3-yl)pyrazolo[1,5-α]pyrimidin-7-yl)cyclopentane-1,3-diamine]",5.1 mg/mL
